Reference: US6809065B2, “Herbicide containing substituted pyrazole derivative as active ingredient” (SDS Biotech K.K., priority 2001, dated 2004)

Experiments:
[1] = tested on: rice (Oryza sative, variety: Koshihikari); experiment: Paddy field treatment (Test Example 3), crop; assay type: in vivo, Oryza sativa; details: transplanted rice two-leaf period, water surface treatment 10th day after transplantation, 1 kg active ingredient per hectare, evaluated 21st day, lower index = higher safety
Method: (§1) In the above evaluation criteria, the term “herbicidal effect” means evaluation to the objective weeds, and a higher index of the evaluation criteria means higher herbicidal effect on the objective weeds. On the other hand, a lower index of the evaluation criteria for the crops means higher safety to the crops. A plastic pot of 130 cm^2 was filled with paddy soil, and soil puddling was carried out to adjust the submerged depth to 4 cm. Then, seeds of Echinochloa crusgalli, Monochoria vaginalis, Ammannia multiflora and Scirpus juncoides were sowed, and rice (Oryza […], variety: Koshihikari) of two-leaf period was transplanted by 2 rice plants of 1 stub per pot at a depth of 3 cm. On the 10th day after the transplantation, a wettable powder composition was prepared in accordance with Formulation Example 1, diluted with water in such an amount that the amount of the active ingredient became 1 kg per hectare, and then dropped to diffuse on the water surface. On the 21st day after the dropping, observation and evaluation were carried out according to the aforesaid criteria.

[2] = tested on: Chenopodium album; experiment: Upland soil treatment (Test Example 2); assay type: in vivo; details: soil surface treatment next day after sowing, wettable powder, 1 kg active ingredient per hectare, evaluated 21st day after application
Description: (§2) In the above evaluation criteria, the term “herbicidal effect” means evaluation to the objective weeds, and a higher index of the evaluation criteria means higher herbicidal effect on the objective weeds. On the other hand, a lower index of the evaluation criteria for the crops means higher safety to the crops. A plastic pot of 130 cm^2 was filled with upland soil. Then, seeds of weeds, namely, Setaria viridis, Digitaria adscendens, Chenopodium album and Stellaria media, and seeds of crops, namely, soybean (Glycine max) and wheat (Triticum aestivum), were sowed and covered with soil of about 1 cm thick. On the next day after the sowing, a wettable powder composition was prepared in accordance with Formulation Example 1, diluted with water in such an amount that the amount of the active ingredient became 1 kg per hectare, and then uniformly applied to the soil surface. On the 21st day after the application, observation and evaluation were carried out according to the aforesaid criteria.

[3] = tested on: Digitaria adscendens; experiment: Upland soil treatment (Test Example 2); assay type: in vivo; details: soil surface treatment next day after sowing, wettable powder, 1 kg active ingredient per hectare, evaluated 21st day after application
Description: as §2

[4] = tested on: Setaria viridis; experiment: Upland soil treatment (Test Example 2); assay type: in vivo; details: soil surface treatment next day after sowing, wettable powder, 1 kg active ingredient per hectare, evaluated 21st day after application
Description: as §2

[5] = tested on: Stellaria media; experiment: Upland soil treatment (Test Example 2); assay type: in vivo; details: soil surface treatment next day after sowing, wettable powder, 1 kg active ingredient per hectare, evaluated 21st day after application
Description: as §2

[6] = tested on: wheat (Triticum aestivum); experiment: Upland field foliage treatment (Test Example 1), crop; assay type: in vivo; details: foliage treatment 14th day after sowing, 1 kg active ingredient per hectare, evaluated 21st day, lower index = higher safety
Description: (§3) In the above evaluation criteria, the term “herbicidal effect” means evaluation to the objective weeds, and a higher index of the evaluation criteria means higher herbicidal effect on the objective weeds. On the other hand, a lower index of the evaluation criteria for the crops means higher safety to the crops. A plastic pot of 130 cm^2 was filled with upland soil. Then, seeds of weeds, namely, Setaria viridis, Digitaria adscendens, Chenopodium album and Stellaria media, and seeds of crops, namely, soybean (Glycine max) and wheat (Triticum aestivum), were sowed and covered with soil of about 1 cm thick. On the 14th day after the sowing, a wettable powder composition was prepared in accordance with Formulation Example 1, diluted with water in such an amount that the amount of the active ingredient became 1 kg per hectare, and then uniformly applied to the plant leaf surfaces. On the 21st day after the application, observation and evaluation were carried out according to the aforesaid criteria.

[7] = tested on: soybean (Glycine max); experiment: as above; assay type: in vivo; details: foliage treatment 14th day after sowing, 1 kg active ingredient per hectare, evaluated 21st day, lower index = higher safety
Description: as §3

[8] = tested on: wheat (Triticum aestivum); experiment: Upland soil treatment (Test Example 2), crop; assay type: in vivo; details: soil surface treatment next day after sowing, 1 kg active ingredient per hectare, evaluated 21st day, lower index = higher safety
Description: as §2

[9] = tested on: soybean (Glycine max); experiment: Upland soil treatment (Test Example 2), crop; assay type: in vivo; details: soil surface treatment next day after sowing, 1 kg active ingredient per hectare, evaluated 21st day, lower index = higher safety
Description: as §2

[10] = tested on: Echinochloa spp.; experiment: Paddy field treatment (Test Example 3); assay type: in vivo, Echinochloa crusgalli; details: paddy pot, submerged 4 cm, dropped on water surface 10th day after transplantation, 1 kg active ingredient per hectare, evaluated 21st day
Method: as §1

[11] = tested on: Chenopodium album; experiment: Upland field foliage treatment (Test Example 1); assay type: in vivo; details: foliage treatment 14th day after sowing, wettable powder, 1 kg active ingredient per hectare, evaluated 21st day after application
Description: as §3

[12] = tested on: Digitaria adscendens; experiment: Upland field foliage treatment (Test Example 1); assay type: in vivo; details: foliage treatment 14th day after sowing, wettable powder, 1 kg active ingredient per hectare, evaluated 21st day after application
Description: as §3

[13] = tested on: Setaria viridis; experiment: Upland field foliage treatment (Test Example 1); assay type: in vivo; details: foliage treatment 14th day after sowing, wettable powder, 1 kg active ingredient per hectare, evaluated 21st day after application
Description: as §3

[14] = tested on: Stellaria media; experiment: Upland field foliage treatment (Test Example 1); assay type: in vivo; details: foliage treatment 14th day after sowing, wettable powder, 1 kg active ingredient per hectare, evaluated 21st day after application
Description: as §3

[15] = tested on: Scirpus juncoides; experiment: Paddy field treatment (Test Example 3); assay type: in vivo; details: paddy pot, submerged 4 cm, dropped on water surface 10th day after transplantation, 1 kg active ingredient per hectare, evaluated 21st day
Method: as §1

[16] = tested on: Monochoria vaginalis; experiment: Paddy field treatment (Test Example 3); assay type: in vivo; details: paddy pot, submerged 4 cm, dropped on water surface 10th day after transplantation, 1 kg active ingredient per hectare, evaluated 21st day
Method: as §1

[17] = tested on: Ammannia multiflora; experiment: Paddy field treatment (Test Example 3); assay type: in vivo; details: paddy pot, submerged 4 cm, dropped on water surface 10th day after transplantation, 1 kg active ingredient per hectare, evaluated 21st day
Method: as §1

| Structure (SMILES) | Herbicidal activity Oryza sativa [1] | Herbicidal activity Chenopodium album [2] | Herbicidal activity Digitaria adscendens [3] | Herbicidal activity Setaria viridis [4] | Herbicidal activity Stellaria media [5] | Herbicidal activity Triticum aestivum [6] | Herbicidal activity Glycine max [7] | Herbicidal activity Triticum aestivum [8] | Herbicidal activity Glycine max [9] | Herbicidal activity Echinochloa spp. [10] | Herbicidal activity Chenopodium album [11] | Herbicidal activity Digitaria adscendens [12] | Herbicidal activity Setaria viridis [13] | Herbicidal activity Stellaria media [14] | Herbicidal activity Scirpus juncoides [15] | Herbicidal activity Monochoria vaginalis [16] | Herbicidal activity Ammannia multiflora [17] |
| --- | --- | --- | --- | --- | --- | --- | --- | --- | --- | --- | --- | --- | --- | --- | --- | --- | --- |
| CCc1cc(-c2ccccc2)nn1CC(=COC)C(=O)OC [Compound 36] | 0 (herbicidal effect of not less than 0% by weight and less than 10% by weight) | 4 (herbicidal effect of not less than 70% by weight and less than 90% by weight) | 4 (herbicidal effect of not less than 70% by weight and less than 90% by weight) | 4 (herbicidal effect of not less than 70% by weight and less than 90% by weight) | 4 (herbicidal effect of not less than 70% by weight and less than 90% by weight) | 1 (herbicidal effect of not less than 10% by weight and less than 30% by weight) | 1 (herbicidal effect of not less than 10% by weight and less than 30% by weight) | 0 (herbicidal effect of not less than 0% by weight and less than 10% by weight) | 0 (herbicidal effect of not less than 0% by weight and less than 10% by weight) | 3 (herbicidal effect of not less than 50% by weight and less than 70% by weight) | 5 (herbicidal effect of not less than 90% by weight) | 4 (herbicidal effect of not less than 70% by weight and less than 90% by weight) | 5 (herbicidal effect of not less than 90% by weight) | 5 (herbicidal effect of not less than 90% by weight) | 3 (herbicidal effect of not less than 50% by weight and less than 70% by weight) | 3 (herbicidal effect of not less than 50% by weight and less than 70% by weight) | 3 (herbicidal effect of not less than 50% by weight and less than 70% by weight) |
| COC=C(Cn1nc(-c2cccc(Cl)c2)c(Cl)c1SC)C(=O)OC [Compound 42] | 0 (herbicidal effect of not less than 0% by weight and less than 10% by weight) | 4 (herbicidal effect of not less than 70% by weight and less than 90% by weight) | 4 (herbicidal effect of not less than 70% by weight and less than 90% by weight) | 4 (herbicidal effect of not less than 70% by weight and less than 90% by weight) | 4 (herbicidal effect of not less than 70% by weight and less than 90% by weight) | 0 (herbicidal effect of not less than 0% by weight and less than 10% by weight) | 0 (herbicidal effect of not less than 0% by weight and less than 10% by weight) | 0 (herbicidal effect of not less than 0% by weight and less than 10% by weight) | 0 (herbicidal effect of not less than 0% by weight and less than 10% by weight) | 3 (herbicidal effect of not less than 50% by weight and less than 70% by weight) | 4 (herbicidal effect of not less than 70% by weight and less than 90% by weight) | 4 (herbicidal effect of not less than 70% by weight and less than 90% by weight) | 4 (herbicidal effect of not less than 70% by weight and less than 90% by weight) | 4 (herbicidal effect of not less than 70% by weight and less than 90% by weight) | 3 (herbicidal effect of not less than 50% by weight and less than 70% by weight) | 3 (herbicidal effect of not less than 50% by weight and less than 70% by weight) | 3 (herbicidal effect of not less than 50% by weight and less than 70% by weight) |
| COC=C(Cn1nc(-c2c(Cl)cccc2Cl)cc1C)C(=O)OC [Compound 9] | 0 (herbicidal effect of not less than 0% by weight and less than 10% by weight) | 5 (herbicidal effect of not less than 90% by weight) | 4 (herbicidal effect of not less than 70% by weight and less than 90% by weight) | 4 (herbicidal effect of not less than 70% by weight and less than 90% by weight) | 4 (herbicidal effect of not less than 70% by weight and less than 90% by weight) | 0 (herbicidal effect of not less than 0% by weight and less than 10% by weight) | 0 (herbicidal effect of not less than 0% by weight and less than 10% by weight) | 0 (herbicidal effect of not less than 0% by weight and less than 10% by weight) | 0 (herbicidal effect of not less than 0% by weight and less than 10% by weight) | 3 (herbicidal effect of not less than 50% by weight and less than 70% by weight) | 4 (herbicidal effect of not less than 70% by weight and less than 90% by weight) | 4 (herbicidal effect of not less than 70% by weight and less than 90% by weight) | 4 (herbicidal effect of not less than 70% by weight and less than 90% by weight) | 4 (herbicidal effect of not less than 70% by weight and less than 90% by weight) | 3 (herbicidal effect of not less than 50% by weight and less than 70% by weight) | 3 (herbicidal effect of not less than 50% by weight and less than 70% by weight) | 3 (herbicidal effect of not less than 50% by weight and less than 70% by weight) |
